Results as given in PubChem BioAssay (NCI).
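Cultured in 96-well plates, cells were exposed to test compound for 48 hours across five concentrations. Abbreviation: GI50, concentration required for 50% inhibition of growth. TGI is the concentration that stops growth completely.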

Key:
Experiment in all cases: inhibition of tumour cell growth, NCI panel, 48 h
IGROV1 ovarian = test system: IGROV1 ovarian
NCI-H23 lung = test system: NCI-H23 lung
ACHN renal = test system: ACHN renal
T-47D breast = test system: T-47D breast
CAKI-1 renal = test system: CAKI-1 renal
NCI-H522 lung = test system: NCI-H522 lung
COLO 205 colon = test system: COLO 205 colon
HT29 colon = test system: HT29 colon
BT-549 breast = test system: BT-549 breast
SNB-75 CNS = test system: SNB-75 CNS

SMILES | TGI (IGROV1 ovarian) | TGI (NCI-H23 lung) | TGI (ACHN renal) | TGI (T-47D breast) | TGI (CAKI-1 renal) | TGI (NCI-H522 lung) | TGI (COLO 205 colon) | TGI (HT29 colon) | TGI (BT-549 breast) | TGI (SNB-75 CNS) | GI50 (IGROV1 ovarian) | GI50 (NCI-H23 lung) | GI50 (ACHN renal) | GI50 (T-47D breast) | GI50 (CAKI-1 renal) | GI50 (NCI-H522 lung) | GI50 (COLO 205 colon) | GI50 (HT29 colon) | GI50 (BT-549 breast) | GI50 (SNB-75 CNS)
CCOC(=O)C(=Cc1ccc(Oc2ccccc2)cc1)C(=O)OCC | 20.8 µM | 6.93 µM | 18.3 µM | 24.6 µM | 28.4 µM | 10.1 µM | 11.4 µM | 11 µM | 5.11 µM | 11 µM |  |  |  |  |  |  |  |  |  | 
COc1ccc(-c2nc3ccccn3c2/C=C/C(=O)c2cc(OC)c(OC)c(OC)c2)cc1 | > 100 µM | 94.1 µM | > 100 µM | 14 µM | > 100 µM | 23.4 µM | 13.5 µM | 32.4 µM | > 100 µM | 54.5 µM | 8.86 µM | 3.41 µM | 3.26 µM | 2.59 µM | 8.33 µM | 3.12 µM | 3.5 µM | 4.8 µM | 3.27 µM | 5.49 µM
CCN(C(=O)c1cc(F)ccc1Oc1cncnc1N1CC2(CCN(CC3CCC(NS(=O)(=O)CC)CC3)CC2)C1)C(C)C (stereo not drawn) | > 100 µM | > 100 µM | > 100 µM | > 100 µM | > 100 µM | > 100 µM | > 100 µM | > 100 µM | > 100 µM | > 100 µM | > 100 µM | > 100 µM | > 100 µM | > 100 µM | > 100 µM | > 100 µM | > 100 µM | > 100 µM | > 100 µM | > 100 µM
C[C@@H](CO)[C@@H]1CCC=C2CC[C@]3(C)[C@H](CC[C@@H]4[C@@]5(C)CCCNC(C)(C)[C@@H]5CC[C@]43C)[C@H]21 | 3.41 µM | 14.3 µM | 6.52 µM | 7.77 µM | 4.25 µM | 3.86 µM |  | 4.49 µM | 24.9 µM | 17.2 µM | 1.78 µM | 3.94 µM | 2.45 µM | 2.38 µM | 1.89 µM | 1.85 µM |  | 1.85 µM | 5.11 µM | 2.19 µM
O=C(NCc1ccc(Cn2c(=O)sn(-c3ccccc3)c2=O)cc1)OCc1ccc2c(Br)cc(Br)c(O)c2n1 | 1.58 µM | 3.06 µM | 0.927 µM | 5.66 µM | 1.67 µM | 1.08 µM | 1.79 µM | 1.89 µM | 1.99 µM | 1.97 µM | 0.428 µM | 1.4 µM | 0.281 µM | 1.71 µM | 0.404 µM | 0.309 µM | 0.399 µM | 0.539 µM | 0.614 µM | 0.606 µM
c1cc(CNCCN2CCNCC2)ccn1 | > 100 µM | > 100 µM | > 100 µM | > 100 µM | > 100 µM | > 100 µM | > 100 µM | > 100 µM | > 100 µM | > 100 µM |  |  |  |  |  |  |  |  |  | 
C=C1CC/C=C(\C)C(=O)C[C@@H]2[C@@H]1CC2(C)C | 12.9 µM | 15.4 µM | 8.67 µM | 7.8 µM | 3.01 µM | 2.96 µM | 3.87 µM | > 32.7 µM | 11.6 µM | 26.3 µM |  |  |  |  |  |  |  |  |  | 
